Measured values taken from paper PMC3661904 (Neuropharmacology, 2012).

How the values were obtained:
Test in all cases: aequorin intracellular calcium assay, inhibition of ACh response
Assay type in all cases: cell-based
[1] = biological target: human α3β4 nicotinic acetylcholine receptor (α3β4 nAChR) (Homo sapiens, UniProt P30926+P32297)
[2] = biological target: human α3β4α5D nAChR (D398 variant of α5; α3β4α5N carries N398) (Homo sapiens, UniProt P30532+P30926+P32297)
[3] = biological target: human α3β4α5D nAChR (D398 variant of α5; α3β4α5N carries N398) (Homo sapiens, UniProt P30532+P30926+P32297, P30532:D398N)
human α3β4α5D nAChR (D398 variant of α5; α3β4α5N carries N398) (Homo sapiens, UniProt P30532+P30926+P32297, P30532:D398N), sequence (P32297 32-505): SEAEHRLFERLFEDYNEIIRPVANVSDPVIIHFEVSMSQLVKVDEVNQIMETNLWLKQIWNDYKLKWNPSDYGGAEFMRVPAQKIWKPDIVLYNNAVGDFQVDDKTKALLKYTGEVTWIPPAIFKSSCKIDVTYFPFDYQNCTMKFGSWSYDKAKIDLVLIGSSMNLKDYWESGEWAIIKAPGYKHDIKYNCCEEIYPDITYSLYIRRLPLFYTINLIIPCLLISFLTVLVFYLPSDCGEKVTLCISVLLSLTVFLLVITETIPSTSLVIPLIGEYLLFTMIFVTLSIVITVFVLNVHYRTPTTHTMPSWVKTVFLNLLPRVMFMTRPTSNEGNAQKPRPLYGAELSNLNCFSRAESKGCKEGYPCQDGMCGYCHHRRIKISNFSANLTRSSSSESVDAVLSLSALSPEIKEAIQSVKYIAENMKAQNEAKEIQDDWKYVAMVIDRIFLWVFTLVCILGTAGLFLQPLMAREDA
human α3β4α5D nAChR (D398 variant of α5; α3β4α5N carries N398) (Homo sapiens, UniProt P30532+P30926+P32297, P30532:D398N), sequence (P30926 22-498): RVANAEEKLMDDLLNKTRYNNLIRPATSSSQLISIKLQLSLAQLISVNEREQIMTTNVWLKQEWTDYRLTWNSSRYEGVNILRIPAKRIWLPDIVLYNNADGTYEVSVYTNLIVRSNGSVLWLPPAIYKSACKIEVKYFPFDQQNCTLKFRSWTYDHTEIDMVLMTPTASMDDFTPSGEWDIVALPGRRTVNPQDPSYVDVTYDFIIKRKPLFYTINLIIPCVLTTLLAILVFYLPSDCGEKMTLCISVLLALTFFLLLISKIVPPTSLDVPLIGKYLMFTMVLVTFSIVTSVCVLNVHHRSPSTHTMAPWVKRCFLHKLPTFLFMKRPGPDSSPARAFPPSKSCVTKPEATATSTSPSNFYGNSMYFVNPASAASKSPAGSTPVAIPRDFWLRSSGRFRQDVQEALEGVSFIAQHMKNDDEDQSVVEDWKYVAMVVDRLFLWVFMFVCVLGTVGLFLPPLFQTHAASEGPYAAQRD
human α3β4α5D nAChR (D398 variant of α5; α3β4α5N carries N398) (Homo sapiens, UniProt P30532+P30926+P32297, P30532:D398N), sequence (P30532 23-468 D398N): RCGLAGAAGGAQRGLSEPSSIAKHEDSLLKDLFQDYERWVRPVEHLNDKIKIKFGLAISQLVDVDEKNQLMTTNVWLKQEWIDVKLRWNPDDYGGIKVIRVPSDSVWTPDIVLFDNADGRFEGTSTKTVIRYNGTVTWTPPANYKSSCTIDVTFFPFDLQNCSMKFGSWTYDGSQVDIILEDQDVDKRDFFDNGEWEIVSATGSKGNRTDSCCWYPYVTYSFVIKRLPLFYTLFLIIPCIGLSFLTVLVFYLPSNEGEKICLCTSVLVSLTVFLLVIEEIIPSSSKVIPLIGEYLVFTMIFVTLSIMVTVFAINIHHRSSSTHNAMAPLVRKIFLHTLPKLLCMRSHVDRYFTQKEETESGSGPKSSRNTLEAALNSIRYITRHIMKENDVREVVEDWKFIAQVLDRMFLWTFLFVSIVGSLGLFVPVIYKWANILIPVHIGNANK

human α3β4 nicotinic acetylcholine receptor (α3β4 nAChR), sequence (P32297 32-505): as the sequence (P32297 32-505) above
human α3β4 nicotinic acetylcholine receptor (α3β4 nAChR), sequence (P30926 22-498): as the sequence (P30926 22-498) above

Compound | IC50 [1] [nM] | IC50 [2] [nM] | IC50 [3] [nM]
COc1cc2c3cc1Oc1cc(ccc1O)C[C@@H]1c4c(cc(OC)c(O)c4Oc4ccc(cc4)C[C@@H]3N(C)CC2)CC[N+]1(C)C [D-Tubocurarine] | 1010 ± 240 | 940 ± 210 | 640 ± 150
CCCCCCC(=O)OC1CC(C)(C)NC(C)(C)C1 [TMPH, 2,2,6,6-tetramethylpiperidin-4-yl heptanoate] | 830 ± 100 | 360 ± 20 | 450 ± 40
